Values quoted from earlier work, collected in US7816357B2, “Azabicyclic heterocycles as cannabinoid receptor modulators” (Bristol-Myers Squibb Company, priority 2003, dated 2010).

Test system: human subjects
Settings: 16 week trial period, published Phase IIb data

Cc1c(C(=O)NN2CCCCC2)nn(-c2ccc(Cl)cc2Cl)c1-c1ccc(Cl)cc1 [SR-141716]
body weight in human subjects: dose-dependently reduced body weight
